Results as given in patent publication US20210386829A1, “COMPOSITIONS AND METHODS FOR MODULATING CGRP SIGNALING TO REGULATE INNATE LYMPHOID CELL INFLAMMATORY RESPONSES” (The Broad Institute, Inc., priority 2018, published 2021).
Entries after “also recorded” stand apart in the source; their conditions may differ.

How the values were obtained:
lung ILCs = experiment: culture of sort-purified lung ILCs with IL-7, IL-33 or IL-25+NMU with or without CGRP (qPCR, LegendPlex, intracellular cytokine staining); format: cell-based, mouse
Protocol: ILC in vitro culture. For in vitro experiments 5,000 ILCs/well were cultured in a 96 well round bottom plate with 20 ng/ml IL-7 (R&D Systems), 200 ng/ml IL-25 (R&D Systems) or 20 ng/ml, 2 ng/ml or 0.2 ng/ml IL-33 (BioLegend) with or without 1 μg/ml Neuromedin U (US Biological). In some cases purified CD90.2^+ lung cells were first labeled with CellTrace Violet (Thermo Fisher Scientific), then sorted as described above, and cultured for 3 days under the indicated conditions.
Quantitative real-time PCR. RNA was isolated using RNeasy Plus Mini Kit (Qiagen) and reverse transcribed to cDNA with iScript cDNA Synthesis Kit (Bio-Rad). Gene expression was analyzed by quantitative real-time PCR on a ViiA7 System (Thermo Fisher Scientific) using TaqMan Fast Advanced Master Mix (Thermo Fisher Scientific) with the following primer/probe sets: Il5 (Mm00439646_m1), Il13 (Mm00434204_m1), Il17rb (Mm00444709_m1), Nmur1 (Mm04207994_m1), Nmur2 (Mm00600704_m1), Nmu (Mm00479868_m1) and Actb (Applied Biosystems). Expression values were calculated relative to Actb detected in the same sample by duplex qPCR.
Cytokine quantification. Cytokine concentrations in BAL fluid, lung and supernatant of in vitro ILC cultures were analyzed by the LegendPlex Mouse Th Cytokine Panel (13-plex) (BioLegend) according to the manufacturer's instructions and analyzed on a FACS Calibur (BD Biosciences).
Culture of innate lymphoid cells. Sort-purified innate lymphoid cells (ILCs) were cultured under sterile conditions in complete medium in a humidified incubator at 37° C. and 10% CO2. ILCs were plated at a density of 3,000-5,000 ILCs per well in a 96 well round-bottom plate in cell culture medium with 20 ng/ml IL-7. Depending on the experiment, different combinations of 200 ng/ml IL-25, 200 ng/ml IL-33, 1 ug/ml NMU and 100 nM CGRP were added either at start or after overnight culture with 20 ng/ml IL-7. […]
(§1) For flow cytometric analysis, lung cells were transferred into a 96 well V-bottom plate and stained with surface antibodies for 20 min at 4° C. in the dark. Cells were washed twice with DPBS containing 2% fetal bovine serum and transferred into 1.2 ml tubes for analysis by flow cytometry. For intracellular cytokine staining, cells were incubated in complete cell culture medium with 50 ng/ml phorbol 12-myristate 13-acetate (Sigma-Aldrich), 1 uM ionomycin (Sigma-Aldrich) and GolgiStop (Cat #554724; BD Biosciences) in a humidified incubator at 37° C. and 10% CO2. After 5 hours, cells were transferred into 96 well V-bottom plate, stained with Fixable Viability Dye eFluor 506 (Cat #65-0866-14; Thermo Fisher) and surface antibodies for 20 min at 4° C. in the dark and washed twice with DPBS containing 2% fetal bovine serum. Then, cells were incubated with BD Cytofix/Cytoperm Buffer (Cat #51-2090KZ; BD Biosciences) for 20 min, followed by a wash with BD Perm/Wash Buffer (Cat #51-2091KZ; BD Biosciences). Subsequently, cells were incubated with antibodies targeting intracellular proteins diluted in BD Perm/Wash Buffer for 20 min and after two wash steps, transferred into 1.2 ml tubes for analysis by flow cytometry. For ki67 staining, cells were stained for surface antibodies as described above, fixed with a solution of Fixation/Permeabilization Concentrate (Cat #00-5123-43; Invitrogen) and Fixation/Perm Diluent (Cat #00-5223-56; Invitrogen) for 20 min, washed with Permeabilization Buffer (Cat #00-8333-56; Invitrogen). Then, cells were incubated with ki67 antibody diluted in Permeabilization Buffer for 20 min, washed and transferred into FACS tubes. Cells were analyzed on a BD LSRFortessa (BD Biosciences) flow cytometer with 5 lasers (355 nm, 405 nm, 488 nm, 561 nm and 640 nm). Data was analyzed using FlowJo v10.5.0 software and cell populations were gated as described previously (Wallrapp 2017).
(§2) RNA isolation and cDNA synthesis. […]

[1] = system: IL-25+NMU-induced airway inflammation; experiment: IL-25+NMU-induced airway inflammation, intranasal co-administration of CGRP; format: in vivo, mouse
Protocol: Cytokine-induced airway inflammation. Mice received nasally 500 ng IL-25, 500 ng IL-33, 20 ug NMU or 6.65 ug CGRP diluted in DPBS for three consecutive days. For nasal administration, mice were lightly anesthetized with Isoflurane (Cat #07-893-1389; Patterson Veterinary). For induction of inflammatory ILC2s, mice received intraperitoneally 500 ng IL-25 for three consecutive days. One day after the last treatment, mice were euthanized and perfused with 8 ml cold PBS via the right heart ventricle. After exposure of the trachea, a small incision was made at the top of the trachea and a curved gavage needle was inserted. Lungs were washed with 1.5 ml cold PBS via the needle and the retrieved bronchoalveolar lavage fluid was centrifuged at 1300 rpm for 5 min at 4 C. After centrifugation, the supernatant was frozen at −20° C. and the cell pellet was resuspended in 250 ul complete medium and stored on ice until flow cytometric analysis. The post-caval lung lobe was transferred into 10% buffered formalin and stored at room temperature until paraffin embedding for histological analysis. The other lung lobes were dissociated using the lung dissociation kit (Cat #130-095-927; Miltenyi Biotec) and automated tissue dissociator (gentleMACS; Miltenyi Biotec) as described above with the adjustment that after running program lung_02, the single cell suspension was centrifuged at 1300 rpm for 5 min at 4° C. and 1 ml of the supernatant was frozen at −20° C. Single-cell suspension was resuspended in complete cell culture medium and stored on ice until further processing.
For cell counts, lung cells were transferred into FACS tubes and stained with 7AAD. Precision Count Beads (Cat #424902; BioLegend) were added according to manufacturer's instructions. Cells and beads were acquired on a BD LSRFortessa (BD Biosciences) and cell numbers were calculated based on number of acquired live (7AAD−) cells and number of acquired beads.
as §1, §2

[2] = IL-7+CGRP vs IL-7 alone, 6 hours
[3] = IL-33+CGRP vs IL-33 alone, 6 hours
[4] = IL-33+CGRP vs IL-33 alone, 3 days
[5] = IL-33+CGRP vs IL-33 alone, 3 days culture

## CGRP: neuropeptide calcitonin gene-related peptide (encoded by Calca), ligand of the Ramp1/Calcrl receptor; given at 100 nM in vitro, 6.65 ug nasally
Lung ILCs; [2]
  Il5 expression in ILC2s (qPCR): upregulated
  Il13 expression in ILC2s (qPCR): downregulated
  amphiregulin (Areg) expression in ILC2s (qPCR): trend of increased expression
Lung ILCs; IL-25+NMU+CGRP vs IL-25+NMU, 3 days
  type 2 cytokine (IL-5, IL-13) production at mRNA and protein level in ILCs: significantly reduced
Lung ILCs; [3]
  Areg expression in ILC2s (qPCR): significantly increased
  Il5 expression in ILC2s (qPCR): significantly increased
  Il13 expression in ILC2s (qPCR): significantly decreased
Lung ILCs; [4]
  IL-13 produced per cell (MFI): less
  amount of IL-5 expressed per cell (MFI): significant decreases
  frequency of IL-5-producing ILCs (flow cytometry): significant decreases
  frequency of IL-13+ ILCs (flow cytometry): lower
Lung ILCs; [5]
  Areg expression in ILCs (qPCR): increased
  IL-5 production at RNA and protein level in ILCs: reduces; also recorded: significantly reduced
  IL-13 production at RNA and protein level in ILCs: reduces; also recorded: significantly reduced; also recorded: remains repressed
Lung ILCs; short-term (8 hours) CGRP+IL33 vs IL-33 alone
  IL-5 protein production (intracellular cytokine staining): induced
Lung ILCs; short-term (8 hours) treatment with CGRP+IL33
  frequency of IL-13-positive ILC2s (intracellular cytokine staining): 2%
[1]; IL-25+CGRP vs IL-25, nasal, three consecutive days
  lung ILC frequencies and numbers: no effect
[1]; IL-25+NMU+CGRP vs IL-25+NMU
  IL-5 protein in lung tissue and BALF: non-significant trend towards reduced expression
  IL-13 protein in lung tissue and bronchoalveolar lavage fluid: reduced
  ILC proliferation (intracellular Ki67): significantly decreased
  eosinophil frequency and numbers in the BAL: towards decreased
  lung ILC frequencies and numbers: strong reduction
  type 2 cytokine mRNA in lung tissue: diminished expression
